Tests used:
ducksalad [1] = experiment: Test C flooded paddy test; assay type: in vivo, Heteranthera limosa
wheat = experiment: Test B postemergence herbicide test; assay type: in vivo, Triticum aestivum; set-up: key to Wheat plant response rating: 0 = no effect, 100 = complete control; settings: scale 0 (no effect) to 100 (complete control)
Procedure, shortened: (§1)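 Greenhouse test; postemergence application to plants at 1–4 leaves (2–18 cm); paddy species at 2 leaves; evaluated visually vs controls at 13–15 days; scale 0–100 (100 = complete control).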

ducksalad [2] = experiment: Test B flooded paddy test; assay type: in vivo, Heteranthera limosa; settings: 1000 g ai/ha, visual rating, scale 0 to 100 (0 no effect, 100 complete control), 13 to 15 days
Procedure, shortened: as §1

wild oat = experiment: Test B postemergence herbicide test; assay type: in vivo, Avena fatua; settings: scale 0 (no effect) to 100 (complete control)
Procedure, shortened: as §1

giant foxtail = experiment: Test B pre-/postemergence herbicide test; assay type: in vivo, Setaria faberi
Procedure, shortened: (§2)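 Formulation: non-phytotoxic solvent mix with surfactant. Timing: preemergence on seed and postemergence on 2–18 cm plants, applied concurrently. Readout after 13–15 d greenhouse: visual 0–100 control rating against controls.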

rice [3] = experiment: Test B pre-/postemergence herbicide test; assay type: in vivo, Oryza sativa; settings: preemergence, 125 g ai/ha; 0 to 100 scale, 0 is no effect, 100 is complete control
Procedure, shortened: as §2

cocklebur = experiment: Test B pre-/postemergence herbicide test; assay type: in vivo, Xanthium strumarium
Procedure, shortened: (§3)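 Greenhouse pot assay with simultaneous preemergence (treated seed) and postemergence (2–18 cm seedlings) applications of surfactant-containing, non-phytotoxic solvent formulations. Response scored visually 13–15 days later on a 0–100 scale, 100 meaning complete control.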

lambsquarters = experiment: Test B pre-/postemergence herbicide test; assay type: in vivo, Chenopodium album
Procedure, shortened: as §2

barnyardgrass [4] = experiment: Test B pre-/postemergence herbicide test; assay type: in vivo, Echinochloa crus-galli
Procedure, shortened: as §3

velvetleaf = experiment: Test B pre-/postemergence herbicide test; assay type: in vivo, Abutilon theophrasti
Procedure, shortened: as §2

blackgrass = experiment: Test B postemergence herbicide test; assay type: in vivo, Alopecurus myosuroides; settings: scale 0 (no effect) to 100 (complete control)
Procedure, shortened: as §1

rice [5] = experiment: Test B flooded paddy test; assay type: in vivo, Oryza sativa; settings: 1000 g ai/ha, visual rating, scale 0 to 100 (0 no effect, 100 complete control), 13 to 15 days
Procedure, shortened: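 Scale 0–100: zero equals no visible effect, 100 complete control, judged by eye relative to controls. Timing: 13 to 15 days in greenhouse post-treatment. Growth stage at spraying: two leaves (paddy) or one to four leaves, 2–18 cm (postemergence).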

Surinam grass = experiment: Test B pre-/postemergence herbicide test; assay type: in vivo, Urochloa decumbens
Procedure, shortened: as §2

rice [6] = experiment: Test C flooded paddy test; assay type: in vivo, Oryza sativa
Procedure, shortened: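 Postemergence sprays applied to plants 2 to 18 cm tall (1- to 4-leaf stage); paddy species grown to 2-leaf stage under flooding. After 12 to 14 days in greenhouse, visual rating versus untreated controls on 0–100 scale (0 no effect, 100 complete control).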

barnyardgrass [7] = experiment: Test C flooded paddy test; assay type: in vivo, Echinochloa crus-galli
Procedure, shortened: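 Plants were grown to the 1- to 4-leaf stage (2–18 cm) and then treated postemergence, or grown to the 2-leaf stage for the flooded paddy test. They were held in a greenhouse for 12 to 14 days and then scored by eye against controls, where 0 is no effect and 100 is complete control.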

large crabgrass = experiment: Test B pre-/postemergence herbicide test; assay type: in vivo, Digitaria sanguinalis
Procedure, shortened: as §2

corn = experiment: Test B pre-/postemergence herbicide test; assay type: in vivo, Zea mays
Procedure, shortened: as §2

[8] = system: smallflower umbrella sedge; experiment: Test C flooded paddy test; assay type: in vivo, Cyperus difformis
[9] = system: small flower umbrella sedge; experiment: Test B flooded paddy test; assay type: in vivo, Cyperus difformis; settings: 1000 g ai/ha, visual rating, scale 0 to 100 (0 no effect, 100 complete control), 13 to 15 days
Procedure, shortened: as §1

morningglory = experiment: Test B pre-/postemergence herbicide test; assay type: in vivo, Ipomoea coccinea
Procedure, shortened: as §3

barnyardgrass [10] = experiment: Test B flooded paddy test; assay type: in vivo, Echinochloa crus-galli; settings: 1000 g ai/ha, visual rating, scale 0 to 100 (0 no effect, 100 complete control), 13 to 15 days
Procedure, shortened: as §1

pigweed = experiment: Test B pre-/postemergence herbicide test; assay type: in vivo, Amaranthus retroflexus
Procedure, shortened: as §2

[11] = 62 g ai/ha, scale 0 to 100 (0 no effect, 100 complete control)
[12] = 125 g ai/ha, scale of 0 to 100, 0 is no effect, 100 is complete control
[13] = 250 g ai/ha, scale of 0 to 100, 0 is no effect, 100 is complete control
[14] = 500 g ai/ha, visual rating after 12 to 14 days, scale 0 to 100 (0 no effect, 100 complete control)
[15] = Postemergence, 500 g ai/ha, visual rating after 13 to 15 days
[16] = postemergence, 125 g ai/ha, visual rating
[17] = Postemergence, 500 g ai/ha, visual rating after 13 to 15 days, scale 0 (no effect) to 100 (complete control)
[18] = Preemergence, 500 g ai/ha, scale 0 to 100
[19] = postemergence, 125 g ai/ha, visual rating, scale 0 (no effect) to 100 (complete control)
[20] = preemergence, 125 g ai/ha, 0 to 100 scale, 0 is no effect, 100 is complete control

CCn1nc(C(C)(C)C)cc1C(=O)Nc1cc(C(=O)OC)c(OC)cc1F [Compound 75]
Ducksalad plant response rating (ducksalad [1]; [11]): 0 | Ducksalad plant response rating (ducksalad [1]; [12]): 30 | Ducksalad plant response rating (ducksalad [1]; [13]): 65 | Plant response rating, Ducksalad (ducksalad [1]; [14]): 70 | Plant response rating, Wheat (wheat; [15]): 20 | Wheat plant response rating (wheat; [16]): 10 | Ducksalad plant response rating (ducksalad [2]): 90 | Plant response rating, Oat, Wild (wild oat; [15]): 40 | Oat, Wild plant response rating (wild oat; [16]): 10 | Plant response rating, Foxtail, Giant (giant foxtail; [17]): 20 | Foxtail, Giant plant response rating (giant foxtail; [18]): 90 | Foxtail, Giant plant response rating (giant foxtail; [19]): 20 | Plant response rating, Foxtail, Giant (giant foxtail; [20]): 30 | Plant response rating, Rice (rice [3]): 40 | Plant response rating, Cocklebur (cocklebur; [17]): 30 | Cocklebur plant response rating (cocklebur; [18]): 10 | Cocklebur plant response rating (cocklebur; [19]): 10 | Plant response rating, Cocklebur (cocklebur; [20]): 0 | Plant response rating, Lambsquarters (lambsquarters; [17]): 40 | Lambsquarters plant response rating (lambsquarters; [19]): 40 | Plant response rating, Lambsquarters (lambsquarters; [20]): 20 | Plant response rating, Barnyardgrass (barnyardgrass [4]; [17]): 20 | Barnyardgrass plant response rating (barnyardgrass [4]; [18]): 90 | Barnyardgrass plant response rating (barnyardgrass [4]; [19]): 10 | Plant response rating, Barnyardgrass (barnyardgrass [4]; [20]): 50 | Plant response rating, Velvetleaf (velvetleaf; [17]): 20 | Velvetleaf plant response rating (velvetleaf; [19]): 20 | Plant response rating, Velvetleaf (velvetleaf; [20]): 20 | Plant response rating, Blackgrass (blackgrass; [15]): 30 | Blackgrass plant response rating (blackgrass; [16]): 10 | Rice plant response rating (rice [5]): 90 | Plant response rating, Surinam Grass (Surinam grass; [17]): 20 | Surinam Grass plant response rating (Surinam grass; [19]): 10 | Plant response rating, Surinam Grass (Surinam grass; [20]): 30 | Rice plant response rating (rice [6]; [11]): 0 | Rice plant response rating (rice [6]; [12]): 25 | Rice plant response rating (rice [6]; [13]): 55 | Plant response rating, Rice (rice [6]; [14]): 65 | Barnyardgrass plant response rating (barnyardgrass [7]; [11]): 0 | Barnyardgrass plant response rating (barnyardgrass [7]; [12]): 25 | Barnyardgrass plant response rating (barnyardgrass [7]; [13]): 65 | Plant response rating, Barnyardgrass (barnyardgrass [7]; [14]): 70 | Plant response rating, Crabgrass, Large (large crabgrass; [17]): 10 | Crabgrass, Large plant response rating (large crabgrass; [18]): 70 | Crabgrass, Large plant response rating (large crabgrass; [19]): 10 | Plant response rating, Crabgrass, Large (large crabgrass; [20]): 10 | Plant response rating, Corn (corn; [17]): 20 | Corn plant response rating (corn; [18]): 30 | Corn plant response rating (corn; [19]): 10 | Plant response rating, Corn (corn; [20]): 0 | Sedge, Umbrella plant response rating [8, 11]: 70 | Sedge, Umbrella plant response rating [8, 12]: 75 | Sedge, Umbrella plant response rating [8, 13]: 80 | Plant response rating, Sedge, Umbrella [8, 14]: 85 | Sedge, Umbrella plant response rating [9]: 70 | Plant response rating, Morningglory (morningglory; [17]): 50 | Morningglory plant response rating (morningglory; [19]): 20 | Plant response rating, Morningglory (morningglory; [20]): 0 | Barnyardgrass plant response rating (barnyardgrass [10]): 80 | Plant response rating, Pigweed (pigweed; [17]): 70 | Pigweed plant response rating (pigweed; [19]): 50 | Plant response rating, Pigweed (pigweed; [20]): 50
